Reference: US20250304620A1, “ANTIMICROBIAL PEPTIDE AND APPLICATION THEREOF” (priority 2023, published 2025)
Non-standard residues stand in square brackets, D forms with d. PEG2000 = polyethylene glycol 2000, conjugated to the N-terminus; PEG4000 = polyethylene glycol 4000, conjugated to the C-terminus; 2Nal = N[C@@H](Cc1ccc2ccccc2c1)C(=O)O; PEG1000 = polyethylene glycol 1000

How the values were obtained:
[1] = test system: Shigella flexneri ATCC 12022; experiment: MIC against clinically common bacterial strain; format: cell-based
Description: (§1) According to the Standards of Clinical and Laboratory Standards Institute (CLSI) of the USA for antimicrobial drug susceptibility test operation standards, the micronutrient serial twofold dilution method was used further determine MICs of 30 AMPs (S/N: LV-1 to LV-30) 10 clinically common sensitive strains and 6 fungi in clinical practice. The experiment was repeated 5 times in parallel.

[2] = test system: carbapenem-resistant Pseudomonas aeruginosa (CRPA); format: cell-based; details: drug-resistant strain CRPA
Description: (§2) According to the Standards of Clinical and Laboratory Standards Institute (CLSI) of the USA for antimicrobial drug susceptibility test operation standards, the micronutrient serial twofold dilution method was used further determine MICs of the antimicrobial peptides LV-1 to LV-30 against 5 clinically common drug-resistant bacterial strains. The experiment was repeated 5 times in parallel. […] The tested drug-resistant strains included Methicillin-resistant Staphylococcus aureus (MRSA), carbapenem-resistant Escherichia coli (CREC), vancomycin-resistant Enterococcus (VRE), carbapenem-resistant Pseudomonas aeruginosa (CRPA), and carbapenem-resistant Klebsiella pneumoniae (CRKP).

[3] = test system: vancomycin-resistant Enterococcus (VRE); format: cell-based; details: drug-resistant strain VRE
Description: as §2

[4] = test system: Methicillin-resistant Staphylococcus aureus (MRSA); format: cell-based; details: drug-resistant strain MRSA
Description: as §2

[5] = test system: carbapenem-resistant Klebsiella pneumoniae (CRKP); format: cell-based; details: drug-resistant strain CRKP
Description: as §2

[6] = test system: carbapenem-resistant Escherichia coli (CREC); format: cell-based; details: drug-resistant strain CREC
Description: as §2

[7] = test system: Staphylococcus aureus (NRS 384); experiment: microbe, parasite or virus in culture; format: cell-based; details: Staphylococcus aureus (NRS 384)
Summary of the method: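 CLSI broth microdilution with serial twofold dilutions gave MICs against S. aureus NRS 384, with 5 parallel replicates. Levofloxacin and the AMP Cbf-K16 served as positive controls.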

[8] = test system: Staphylococcus aureus (NRS 384); details: MIC vs Staphylococcus aureus (NRS 384) after trypsin treatment 1:10 (w/w), 37° C., 3 h
Description: Trypsin (250 U/mg, pH=8.0) and AMPs (LV-1 to LV-30) were mixed in a ratio of 1:10 (w/w) and added to a reaction buffer (0.2 M sodium phosphate, 1 mM CaCl2), pH 7.5), and then incubated at 37° C. for 3 h.

[9] = test system: Candida albicans ATCC MYA-2876; format: cell-based
Description: as §1

Enterococcus ATCC 29212 = format: cell-based
Description: as §1

[10] = test system: Klebsiella pneumoniae ATCC 700603; format: cell-based
Description: as §1

Candida utilis ATCC 9950 = format: cell-based
Description: as §1

[11] = test system: Corynebacterium ATCC 7715; format: cell-based
Description: as §1

[12] = test system: Escherichia coli ATCC 25922; format: cell-based
Description: as §1

[13] = test system: Pseudomonas aeruginosa ATCC 27853; format: cell-based
Description: as §1

[14] = test system: Staphylococcus aureus ATCC 25923; format: cell-based
Description: as §1

Candida krusei ATCC 6258 = format: cell-based
Description: as §1

[15] = test system: Trichophyton ATCC MYA-4438; format: cell-based
Description: as §1

[16] = test system: Candida tropicalis ATCC 750; format: cell-based
Description: as §1

[17] = test system: Bacillus subtilis ATCC 6633; format: cell-based
Description: as §1

[18] = test system: Salmonella typhimurium ATCC 14028; format: cell-based
Description: as §1

[19] = test system: Serratia marcescens ATCC 29021; format: cell-based
Description: as §1

[20] = test system: Candida glabrata ATCC 15126; format: cell-based
Description: as §1

Substance	MIC Shigella flexneri ATCC 12022 [1]	MIC CRPA [2]	MIC VRE [3]	MIC MRSA [4]	MIC CRKP [5]	MIC CREC [6]	MIC against Staphylococcus aureus (NRS 384) [7]	Trypsin MIC [8]	MIC Candida albicans ATCC MYA-2876 [9]	MIC Enterococcus ATCC 29212 (Enterococcus ATCC 29212)	MIC Klebsiella pneumoniae ATCC 700603 [10]	MIC Candida utilis ATCC 9950 (Candida utilis ATCC 9950)	MIC Corynebacterium ATCC 7715 [11]	MIC Escherichia coli ATCC 25922 [12]	MIC Pseudomonas aeruginosa ATCC 27853 [13]	MIC Staphylococcus aureus ATCC 25923 [14]	MIC Candida krusei ATCC 6258 (Candida krusei ATCC 6258)	MIC Trichophyton ATCC MYA-4438 [15]	MIC Candida tropicalis ATCC 750 [16]	MIC Bacillus subtilis ATCC 6633 [17]	other results
Ac-RKLLXRLKXRK-PEG1000 [LV-28] (Ac-RKLL[2Nal]RLK[2Nal]RK-PEG1000) [polyethylene glycol 1000 conjugated to C-terminal; X=3-(2-naphthyl)-alanine]	4 µg/mL	8 µg/mL	4 µg/mL	4 µg/mL	4 µg/mL	4 µg/mL	1 µg/mL	1 µg/mL	8 µg/mL	8 µg/mL	4 µg/mL	8 µg/mL	8 µg/mL	2 µg/mL	2 µg/mL	2 µg/mL	4 µg/mL	8 µg/mL	4 µg/mL	4 µg/mL	MIC Salmonella typhimurium ATCC 14028 [18]: 4 µg/mL; MIC Serratia marcescens ATCC 29021 [19]: 8 µg/mL; MIC Candida glabrata ATCC 15126 [20]: 8 µg/mL
Ac-RKLLXRLKXRK-PEG4000 [LV-30] (Ac-RKLL[2Nal]RLK[2Nal]RK-PEG4000) [polyethylene glycol 4000 conjugated to C-terminal; X=3-(2-naphthyl)-alanine]	2 µg/mL	8 µg/mL	4 µg/mL	8 µg/mL	4 µg/mL	4 µg/mL	1 µg/mL	1 µg/mL	8 µg/mL	4 µg/mL	8 µg/mL	8 µg/mL	8 µg/mL	2 µg/mL	2 µg/mL	2 µg/mL	16 µg/mL	8 µg/mL	8 µg/mL	2 µg/mL	MIC Salmonella typhimurium ATCC 14028 [18]: 2 µg/mL; MIC Serratia marcescens ATCC 29021 [19]: 8 µg/mL; MIC Candida glabrata ATCC 15126 [20]: 16 µg/mL
PEG2000-RKLLXRLKXRK-NH2 [LV-29] (PEG2000-RKLL[2Nal]RLK[2Nal]RK-NH2) [polyethylene glycol 2000 conjugated to N-terminal; X=3-(2-naphthyl)-alanine]	4 µg/mL	4 µg/mL	4 µg/mL	4 µg/mL	8 µg/mL	8 µg/mL	1 µg/mL	1 µg/mL	8 µg/mL	8 µg/mL	4 µg/mL	4 µg/mL	16 µg/mL	1 µg/mL	4 µg/mL	2 µg/mL	8 µg/mL	16 µg/mL	4 µg/mL	4 µg/mL	MIC Salmonella typhimurium ATCC 14028 [18]: 4 µg/mL; MIC Serratia marcescens ATCC 29021 [19]: 4 µg/mL; MIC Candida glabrata ATCC 15126 [20]: 8 µg/mL
